The target in the test is T1, Alpha-2C adrenergic receptor (Homo sapiens, UniProt P18825).
T1 sequence (P18825 whole entry): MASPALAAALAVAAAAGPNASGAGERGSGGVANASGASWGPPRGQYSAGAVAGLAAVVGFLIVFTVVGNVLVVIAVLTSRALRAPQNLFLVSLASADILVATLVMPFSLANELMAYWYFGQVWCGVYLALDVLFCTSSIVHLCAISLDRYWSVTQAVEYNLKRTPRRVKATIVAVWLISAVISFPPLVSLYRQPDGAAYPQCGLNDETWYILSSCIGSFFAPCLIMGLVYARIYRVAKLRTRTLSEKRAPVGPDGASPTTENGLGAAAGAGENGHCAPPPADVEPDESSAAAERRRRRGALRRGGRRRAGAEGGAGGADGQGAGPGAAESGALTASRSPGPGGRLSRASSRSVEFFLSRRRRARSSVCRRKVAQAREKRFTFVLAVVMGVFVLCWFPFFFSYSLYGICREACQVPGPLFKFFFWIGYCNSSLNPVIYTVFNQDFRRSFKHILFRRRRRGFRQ
Description: In Vitro Radioligand Binding Assay. How it is done:
In Vitro Radioligand Binding Studies for Determination of the Dissociation Constants K1 at the Human Adrenoreceptor ADRA2C (Eurofins Panlabs Discovery Services, Taiwan, Ltd)A competition assay based on [3H] rauwolscine as radioliganden was used to determine the binding affinity of the test substances at the human ADRA2C receptor.To configure the competition assay, the equilibrium dissociation constant Kd of the radioligand [3H] rauwolscine was determined in a saturation experiment. To this end, homogenates of CHO-K1 cells recombinantly expressing the human ADRA2C receptor were incubated with increasing concentrations of the radiotracers for 1 h at 4° C. in binding buffer (50 mM Tris-HCl, 1 mM EDTA, pH 7.4). Unspecific binding was determined by addition of an excess of the not radioactively labelled ligand prazosin (10 μM). The radioactivity was determined in a scintiation counter.The competition experiments were carried out in the presence of 0.5 nM [3H] rauwolscine and increasing concentrations of the test substances to be characterized under the conditions described above.

Each structure is given as a SMILES string.

As a reminder, the IC50 is the concentration at which inhibition is half-maximal. High values mean a need for much substance, low ones inhibition by little substance. Consider `C[C@@H]1CCCN(C2CCN(c3nc(Br)c(C(=O)NCc4ncc(F)cc4F)s3)CC2)C1` [US20240000767, Example 119], for which the IC50 stood at 0.03 µM.
The value for `C[C@@H]1CCCN(C2CCN(c3ncc(C(=O)NCc4cc(C(F)(F)F)ccn4)s3)CC2)C1` [US20240000767, Example 18] was 6.8 µM.

These data come from BindingDB's records for patent US20240000767 (Bayer Aktiengesellschaft, 2024).
